The record followed here is patent US12252517B2, “Hook fusion protein for regulating the cellular trafficking of a target protein” (INSTITUT CURIE, priority 2017, dated 2025).

Holding throughout (type): cell-based
For one assay, the system named is scFvCD19-Myc-DAP10-sSBP. In words: Time course release using biotin (RUSH traffic, immunofluorescence) with Str-endoKKXX hook. The conditions noted are these: HeLa cells, addition of biotin (40 μM). The method, then:
(§1) HeLa cells were cultivated at 37° C. and 5% of CO2 in Dulbecco's modified Eagle medium (DMEM) supplemented with 10%1-BS (Biowest), 1 mM sodium Pyruvate and […] of penicillin and streptomycin (Invitrogen). HeLa cells were transfected with the plasmid of interest using Calcium phosphate protocol in the presence of 25 mM of HEPES. Briefly, the plasmids coding the sequence of CAR based RUSH such as CD3-SBP-NKG2D (SEQ ID NO: 13), scFv(CD19)-GFP-DAP10CD3-sSBP (SEQ ID NO: 23), scFv(CD19)-GFP-DAP10-SBPdel (SEQ ID NO: 24), scFv(CD19)-mycDAP10-SBP (SEQ ID NO: 25) or BACE1-SBP-EGFP (SEQ ID NO: 26) (2.5 ug per 1 mL of final volume) were add to 1 mM tris-HCl pH 8.02 buffer followed by the addition of 10% of CaCl2 and incubated for 5 min (RT). Then this mix was add drop by drop into 2× concentrate HEBS buffer (160 mM NaCl, 1.5 mM Na2HPO4, 50 mM Hepes PH 7.04-7.05) while vortexing. The cells were incubated with this solution overnight at 37° C. and 5% of CO2.
(§2) The cells were seeded into a glass coverslips for fixed cell immunofluorescence and/or live imaging. In the next day the cells were transfected with the plasmids coding the construct of interest as previously described. For the steady state of the protein/construct, 40 μM final concentration of biotin was added (4 mM stock solution) just after addition of the transfection solution. […]

Assay [1] has as its system scFv (CD19)-GFP-DAP10-sSBP. In words: Time course release using biotin (RUSH traffic) with soluble mini hook. The conditions noted are these: HeLa cells, addition of biotin. As for the experimental part: as §1, §2
Assay [2] has as its system scFv (CD19)-GFP-DAP10CD3-sSBP. Described as above. The conditions noted are these: HeLa cells, addition of biotin. As for the experimental part:
as §1, §2

Assay [3] deals with BACE1-GFP-SBP (BACE1-RUSH). As to the kind of experiment: Retention, ALiS-1 release and wash-out retrieval from the cell surface. The conditions noted are these: HeLa cells. The method, then:
as §1
Biotin-mimetic molecule ALiS-1 was prepared in DMSO to 20 mM (stock solution) and the cells were treated with 40 μM final concentration to prevent the interaction between the reporter (target membrane protein) and the hook.
Cells coated in the coverslips were washed once in 1×PBS buffer, fixed in 3% of paraformaldehyde (PFA) (10-15 min, RT), washed (2×) and incubated with 50 mM of NH4Cl (5 min, RT) to quench free aldehydes. […]

`O=C(O)CCCC[C@@H]1SC[C@@H]2NC(=O)N[C@@H]21` [biotin]: the entries for the “release of reporter from the hook” value (in the assay on scFvCD19-Myc-DAP10-sSBP; in assay [1]; in assay [2]) were “released”, “leads to the release” and “leads to the release”, respectively.

B1: Ii Hook: previously described Invariant chain-based Hook: streptavidin fused to human invariant chain Ii (Boncompain et al. 2012) (protein)
chain: MHRRRSRSCREDQKPVMDDQRDLISNNEQLPMLGRRPGAPESKCSRGALYTGFSILVTLLLAGQATTAYFLYQQQGRLDKLTVTSQNLQLENLRMKLPKPPKPVSKMRMATPLLMQALPMGALPQGPMQNATKYGNMTEDHVMHLLQNADPLKVYPPLKGSFPENLRHLKNTMETIDWKVFESWMHHWLLFEMSRHSLEQKPTDAPPKESLELEDPSSGLGVTKQDLGPVPM
modifications: left off: large carriers
On to B1, for which the localization of reporter result in assay [3] (absence of releasing molecule (without biotin)) is listed as “retained in the ER”. Also, the “retrieval of cell surface reporter back to the ER” value in assay [3] (washing-out ALiS-1 for 1 hour) is reported as “does not allow to capture cell surface localized BAC1-RUSH”.
